What all share (type): cell-based
For assay [1], the system named is Mycobacterium tuberculosis. Kind of assay: Mycobacterium tuberculosis Serum Shift MIC Assay (Protocol 5). The note with it: ATCC 35801 / ERDMAN. The text has this:
Protocol 5. Protocol for Mycobacterium tuberculosis Serum Shift MIC Assay
Media Prep: • 1. […] It was important that all media and supplements were sterilized prior to MICs. • 2. Prepared all media below and inoculated as described in next section. Tested all compounds against Mtb using each media. • a. […] 7H9+0.2% glycerol+2 g/L dextrose+0.85 g/L NaCl+0.003 g/L catalase (0% FBS). • c. 2×7H9+0.2% glycerol+2 g/L dextrose+0.85 g/L NaCl+0.003 g/L catalase combined with equal volume Fetal Bovine Serum (50% FBS).
Inoculum Prep: • 1. Using BBL Prompt, picked 5-10 well-separated colonies and inoculated 1 ml sterile saline that came in the kit. Typically plates were two to three weeks of age when used for this assay due to the slow growth of this organism in culture. • 2. Vortexed well, then sonicated in water bath for 30 sec providing a suspension of ˜10^8 cells/ml. Actual density could be confirmed by plating out dilutions of this suspension. • 3. Prepared inoculum in each of the three media formulations by diluting the BBL Prompt suspension 1/200 (for example: transferred 0.2 ml of cells to 40 ml of medium) to obtain a starting cell density of […]. • 4. Used 100 μl cells (˜5×10^4 cells) to inoculate each microtiter well containing 1 μl of drug in DMSO (see below).
Drug Dilutions, Inoculation, MIC Determination: • 1. Control drug stocks Isoniazid and Novobiocin were prepared at 10 mM in 100% DMSO while Ciprofloxacin and Rifampin were prepared at 1 mM in 50% DMSO and 100% DMSO, respectively. Prepared dilutions—dispensed 100 μL of the stock solution into the first column of a 96-well plate. Prepared 11-step, 2-fold serial dilutions across the row for each compound by transferring 50 μl from column 1 into 50 μl of DMSO in column 2. Continued to transfer 50 μL from column 2 through column 11 while mixing and changing tips at each column. Left column 12 with DMSO only as a control. • 2. Transferred 1 μl of each dilution into an empty microtiter well prior to the addition of 100 μl of cells. The starting concentration of Isoniazid and Novobiocin was 100 μM after the dilution into medium+cells; the starting concentration of Ciprofloxacin and Rifampin was 10 μM after the dilution into medium+cells. Compound concentrations decreased in 2× steps moving across the rows of the microtiter plate. […] Measured background fluorescence at Excitation 492 nm, Emission 595 nm and returned the plate to the incubator for another 24 hours.
After 24 hours the fluorescence of each well was measured at Excitation 492 nm, Emission 595 nm.
Percent inhibition by a given compound was calculated as follows: Percent inhibition=100−([well fluorescence-average background fluorescence]/[DMSO control−average background fluorescence]×100). […]

For the next assay, the system named is M. kansasii. Briefly: MIC in bacterial broth culture (7H9 with ADC, visual or resazurin). The following applies: Mycobacterium kansasii, Table 31; M. kansasii 303; duplicate values. A general note: The colour change of resazurin is a common sign of viable cells or microbes.
The subject of the next assay is M. tuberculosis H37Rv. Kind of assay: Minimum bactericidal concentration (MBC) assay. The note with it: for Log Reduction: vs untreated control.
A further assay deals with M. tuberculosis Erdman. Kind of assay: MBC assay, log killing reduction in CFU over a one month period of incubation (Table 35). The note with it: for Log Reduction (cfu): Compound 23A at 4×MIC.
The test system of assay [2] is Non-Replicating (NRP) M. tuberculosis H37Ra. Briefly: Non-replicating (NRP) M. tuberculosis H37Ra (luciferase) culture assay. The following applies: Mycobacterium tuberculosis, 336 h, read on day 14.

Molecules are shown by their SMILES. Counter-ions that a name gives are not always drawn. Like-named read-outs stand apart in the source and are kept apart here.

The source of these data is patent publication US9937192B2, “Combination therapy to treat mycobacterium diseases” (priority 2012, dated 2018).

Turning to `CCNC(=O)Nc1nc2cc(-c3cnc(C(C)(C)O)nc3)c(F)c([C@H]3CCCO3)c2[nH]1` [Compound 23A, methanesulfonic acid salt of 1-ethyl-3-[6-fluoro-5-[2-(1-hydroxy-1-methyl-ethyl)pyrimidin-5-yl]-7-[(2R)-tetrahydrofuran-2-yl]-1H-benzimidazol-2-yl]urea], the MIC (commonly the least concentration at which growth counts as inhibited) in assay [1] (M. tuberculosis Erdman ATCC 35801, read-out: MIC) worked out at 0.03 µg/mL; in assay [1] (M. tuberculosis Erdman ATCC 35801 with Mouse Serum), 0.5 µg/mL; against M. kansasii, 0.03 µg/mL. Also, the Log cfu is given as 5.36 in the assay with M. tuberculosis H37Rv (0.039 ug/mL); 3.75 in the assay on M. tuberculosis H37Rv (0.078 ug/mL); 1.04 in the assay with M. tuberculosis H37Rv (0.156 ug/mL); 1.32 in the assay on M. tuberculosis H37Rv (0.312 ug/mL); 1.04 in the assay on M. tuberculosis H37Rv (0.625 ug/mL). In addition, the “Log Reduction” value in the assay on M. tuberculosis H37Rv (0.039 ug/mL) is recorded as 0.77; in the assay with M. tuberculosis H37Rv (0.078 ug/mL), 2.38; with M. tuberculosis H37Rv (0.156 ug/mL), 5.09; in the assay with M. tuberculosis H37Rv (0.312 ug/mL) it was 4.81; in the assay on M. tuberculosis H37Rv (0.625 ug/mL), 5.09. In addition, in the assay on M. tuberculosis Erdman (4×MIC, one month period of incubation), the “killing kinetics (log reduction in CFU)” value was “slow killing kinetics”. The “Log Reduction (cfu)” value stood at 0 Log in the assay with M. tuberculosis Erdman (day 0 of incubation); 0.2 Log with M. tuberculosis Erdman (day 1 of incubation); 0.2 Log in the assay on M. tuberculosis Erdman (day 2 of incubation); 1.0 Log in the assay on M. tuberculosis Erdman (day 3 of incubation); 1.9 Log in the assay on M. tuberculosis Erdman (day 7 of incubation); 1.9 Log in the assay on M. tuberculosis Erdman (day 14 of incubation). In addition, the “Log Reduction (cfu)” value turned out to be 2.2 Log with M. tuberculosis Erdman (day 21 of incubation) and 3.0 Log with M. tuberculosis Erdman (day 28 of incubation). Also, the IC50 (in general, the midpoint of a concentration-inhibition curve) in assay [2] amounted to 1 µg/mL.
